In patent US20170150715A1, “METHODS OF ELIMINATING SPORES” (Lifeclean International AB, priority 2013, published 2017):
Marks after values point to notes of the source that are not given here.

What was measured:
[1] = test system: C difficile spores PCR Ribotype 023; test: Elimination of spores of Clostridium difficile on surfaces (Example 4; glass, brass, copper); format: cell-based; conditions: 10 minutes exposure; for Culture 6 PY-broth undiluted / Culture 7 PY-broth 10^−2 / Culture 8 PY-broth 10^−4 / Culture 9 PY-broth 10^−6: cotton tip smear of surface; for total amount of CFUs in the flasks (within brackets): surviving spores displaced from the surface; for amount of CFU in the undiluted PY-broth (within brackets): surviving spores remaining attached to the surface
Source text: C difficile spores PCR Ribotype 023 (ECDC/Cardiff nomenclature) were transferred from a frozen sample to plates with Fastidious Anaerobe Agar (FAAAP), cultured under anaerobe conditions for 2 days. The cultures were transferred to ambient conditions and colonies of C difficile were admitted to sporulate. The spores were harvested and dissolved in sterile water (reverse osmosis (RO)), subjected to alcohol shock (70%), washed, centrifugated and collected as a suspension of spores.
In the preparation 0.1 ml of the spore suspension was transferred to microscopy slides, sterile plates of brass or copper. When the spore suspensions have dried, 0.2 ml of the following solutions were added:
After 10 minutes exposure to the solutions, the Glasses and the plates were each transferred to a 500 ml Glass flask to dilute and interrupt disinfection. The flasks were rotated at 200 rpm for 20 minutes.
From each of the rotated flasks 0.1 ml was transferred to agar plates (Culture 1). The samples were diluted in two steps 1/10 in tubes. From each tube, 0.1 ml was transferred to agar plates (Cultures 2 and 3).
The solutions in the flasks were filtered and rinsed with 3×100 ml buffered peptone water (PENAL). The filtrations were performed in two steps. At first, 1 ml was filtered, then remaining volume of solution in the flasks (approx. 249 ml). The filters were cultured on agar plates (Cultures 4 and 5).
At two times, 40 ml samples were taken from the filtrates. These were centrifugated and the supernatant was discarded, the pellet re-suspended in 0.1 ml 0.85% NaCl solution. The entire volume was transferred to agar plates.
In order to assess if viable spore remain on the surfaces of Glasses and the, they were smeared with moist cotton tip (all smeared in accordance with a “double-S” shape). The tip was cultured in 2 ml pre-reduced PY-broth which was diluted 1/10 in several repeated steps and cultured on agar plates (0.2 ml/plate), (Cultures 6 to 9)
All culture plates were cultured under anaerobe conditions at 36° C. for 2 days.

[2] = test system: spore suspension Ribotype 25; test: Elimination of spores on glass surfaces, different concentrations of surfactants (Example 8); format: cell-based, Clostridium difficile; conditions: glass surface, application time 2 minutes
Description: Example 9 outlines a test with chlorine dioxide solutions of 800 and 1600 ppm having different concentration of surfactants made in accordance with Example 2A. A spore suspension was generated and counted in accordance with Example 4:
Ribotype 25; 8.0×10^8 spores/mL (8.0×10^7 spores on the glass surface) approximately 80% spores in the suspension.
(§1) The glass surfaces were prepared by transferring 0.1 ml of the spore solution to microscopy slides. After the suspension has dried, 0.2 ml of the test solutions were added to the slides for an application time of 2 minutes. Subsequently, the glass surfaces were each placed in a 500 ml glass flask with 250 ml 0.85% NaCl solution and rotated at 200 rpm for 20 minutes.
After rotation, the contents of the flasks were treated and cultured with procedures and agar plates in accordance with Example 4.

[3] = test system: spore suspension Ribotype 25; test: Elimination of spores on glass surfaces, different contact times (Example 7); format: cell-based, Clostridium difficile; conditions: glass surface, contact time 10 min
Description: Example 7 outlines a test with different contact for chlorine dioxide solution according to the invention. A spore suspension was generated and counted in accordance with Example 4:
Ribotype 25; 9.6×10^8 spores/mL (9.6×10^7 spores on the glass surface) approximately 80% spores in the suspension.
as §1, with “for” for “for an”, “times between 1 and 10” for “time of 2”
The test solution comprising chlorine dioxide was prepared in accordance with Example 2B, comprising 1600 ppm chlorine dioxide together with 0.2% (v/v) cationic surfactant comprising equal amounts of octyl dimethylamine oxide and lauryl dimethylamine oxide). After rotation, the contents of the flasks were treated and cultured with procedures and agar plates in accordance with Example 4.

[4] = test system: spores of C Difficile, Ribotype 25; test: Elimination of spores of C Difficile on glass surfaces, types and combinations of surface active agents (Example 6); format: cell-based, Clostridium difficile
Description: Example 6 was designed in order to evaluate different types and combinations of surface active agents in combination with chlorine oxide for elimination of spores of C Difficile on surfaces. The following test solutions were used:
The solutions were prepared in accordance with Examples 2, 2A and 3. RD1 and RD2 signify the anionic surfactants of Example 3 branded DOWFAX 3B2 and DOWFAX 8390, respectively. RD3 and RD4 signify the cationic surfactants of Example 2A branded AO-8 Macat and AO-12 Macat.
A spore suspension was generated and counted in accordance with Example 4:
Ribotype 25; 8.0×10^9 spores/mL (8.0×10^8 spores on the glass surface) approximately 80% spores in the suspension.
as §1, with “for” for “for an”, “times between 1 and 10” for “time of 2”

[5] = spores survived not detached from the surface
[6] = surviving spores detached from the surface
[7] = 8.0×10^8 spores on the glass surface

For CCO [70% Ethanol, Ethanol], the “Culture 1 0.1 mL From bottle” value ([1]; Brass) was “overgrown”, the “Culture 2 Dilution 10^−1” value ([1]; Brass) was 55 CFU and the “Culture 3 Dilution 10^−2” value ([1]; Brass) was 5 CFU. For the same compound, the “Culture 4 Filtration 1 mL” value ([1]; Brass) was “overgrown”, the “Culture 5 Filtration 249 mL” value ([1]; Brass) was “overgrown” and the “Culture 6 PY-broth undiluted” value ([1]; Brass) was “overgrown”. For the same compound, the “Culture 7 PY-broth 10^−2” value ([1]; Brass) was “overgrown”, the “Culture 8 PY-broth 10^−4” value ([1]; Brass) was 74 CFU and the “Culture 9 PY-broth 10^−6” value ([1]; Brass) was 0 CFU. For the same compound, the “total amount of CFUs in the flasks (within brackets)” value (“total amount of CFUs in the flasks” below) ([1]; Brass) was “(1.4 × 10^6) CFU”, the “amount of CFU in the undiluted PY-broth (within brackets)” value (from here on “amount of CFU in the undiluted PY-broth”) ([1]; Brass) was “(7.4 × 10^6) CFU” and the “Culture 1 0.1 mL From bottle” value ([1]; Copper) was 429 CFU. The “Culture 2 Dilution 10^−1” value ([1]; Copper) was 40 CFU, the “Culture 3 Dilution 10^−2” value ([1]; Copper) was 1 CFU and the “Culture 4 Filtration 1 mL” value ([1]; Copper) was “overgrown”. For the same compound, the “Culture 5 Filtration 249 mL” value ([1]; Copper) was “overgrown”, the “Culture 6 PY-broth undiluted” value ([1]; Copper) was “overgrown” and the “Culture 7 PY-broth 10^−2” value ([1]; Copper) was “overgrown”. For the same compound, the “Culture 8 PY-broth 10^−4” value ([1]; Copper) was 79 CFU, the “Culture 9 PY-broth 10^−6” value ([1]; Copper) was 0 CFU and the “total amount of CFUs in the flasks” value ([1]; Copper) was “(1.0 × 10^6) CFU”. The “amount of CFU in the undiluted PY-broth” value ([1]; Copper) was “(7.9 × 10^6) CFU”, the “Culture 1 0.1 mL From bottle” value ([1]; Glass) was “overgrown” and the “Culture 2 Dilution 10^−1” value ([1]; Glass) was 517 CFU. For the same compound, the “Culture 3 Dilution 10^−2” value ([1]; Glass) was 46 CFU, the “Culture 4 Filtration 1 mL” value ([1]; Glass) was “overgrown” and the “Culture 5 Filtration 249 mL” value ([1]; Glass) was “overgrown”. For the same compound, the “Culture 6 PY-broth undiluted” value ([1]; Glass) was “overgrown”, the “Culture 7 PY-broth 10^−2” value ([1]; Glass) was “overgrown” and the “Culture 8 PY-broth 10^−4” value ([1]; Glass) was 39 CFU. For the same compound, the “Culture 9 PY-broth 10^−6” value ([1]; Glass) was 1 CFU, the “total amount of CFUs in the flasks” value ([1]; Glass) was “(1.2 × 10^7) CFU” and the “amount of CFU in the undiluted PY-broth” value ([1]; Glass) was “(3.9 × 10^6) CFU”. The “Number cfu × 100 × 250 0.1 mL Diluted 10^−2” value ([2]; head lines shifted, by Table 4 layout: 0.1 mL Diluted 10^−1) was “overgrown”, the “Number cfu × 1000 × 250 PY-broth Undiluted” value ([2]; head lines shifted, by Table 4 layout: 0.1 mL Diluted 10^−2) was 81 cfu and the “Number cfu × 10 × 250 0.1 mL Diluted 10^−1” value ([2]; head lines shifted, by Table 4 layout: 0.1 mL From bottle) was “overgrown”. For the same compound, the “Number cfu × 250 0.1 mL From bottle” value ([2]; head lines shifted, by Table 4 layout: Filtration 1 mL) was “overgrown”, the “Number cfu Filtration 1 mL” value ([2]; head lines shifted, by Table 4 layout: Filtration 249 mL) was “overgrown” and the “Number cfu × 10^3 PY-broth Diluted 10^−4” value ([2]; head lines shifted, by Table 4 layout: PY-broth Diluted 10^−2) was “overgrown”. The “Number cfu × 10^5 Filtration 249 mL” value ([2]; head lines shifted, by Table 4 layout: PY-broth Diluted 10^−4) was 28 cfu, the “Number cfu × 10 PY-broth Diluted 10^−2” value ([2]; head lines shifted, by Table 4 layout: PY-broth Undiluted) was “overgrown” and the “number of CFUs in the undiluted PY-broth (brackets)” value [2, 5] was “(2.8 × 10^6) CFUs”. For the same compound, the “number of CFUs in the flask (brackets)” value [2, 6] was “(2.0 × 10^7) CFUs”, the “Number cfu Filtration 249 mL” value [3] was “overgrown” and the “Number cfu × 10 PY-broth Undiluted” value [3] was “overgrown”. The “Number cfu × 10^3 PY-broth Diluted 10^−2” value [3] was “overgrown”, the “Number cfu × 10^5 PY-broth Diluted 10^−4” value [3] was 67 cfu and the “Number cfu × 10 × 250 0.1 mL From bottle” value [3] was “overgrown”. The “Number cfu × 100 × 250 0.1 mL Diluted 10^−1” value [3] was “overgrown”, the “Number cfu × 250 Filtration 1 mL” value [3] was “overgrown” and the “Number cfu × 1000 × 250 0.1 mL Diluted 10^−2” value [3] was 103 cfu. The “number of CFUs in the undiluted PY-broth (brackets)” value [3, 5] was “(6.7 × 10^6) CFUs”, the “number of CFUs in the flask (brackets)” value [3, 6] was “(2.6 × 10^7) CFUs” and the “0.1 mL Diluted 10^−1” value [4, 7] was “overgrown”. The “0.1 mL Diluted 10^−2” value [4, 7] was 240 CFUs, the “0.1 mL From bottle” value [4, 7] was “overgrown” and the “Filtration 1 mL” value [4, 7] was “overgrown”. For the same compound, the “PY-broth Diluted 10^−2” value [4, 7] was “overgrown”, the “PY-broth Diluted 10^−4” value [4, 7] was 86 CFUs and the “PY-broth Undiluted” value [4, 7] was “overgrown”. For the same compound, the “number of CFUs in the undiluted PY-broth (brackets)” value [4, 5] was “(8.6 × 10^6) CFUs” and the “number of CFUs in the flask (brackets)” value [4, 6] was “(6.0 × 10^7) CFUs”.
